Experiments:
Type in all cases: biochemical
[1] = target: B-Raf (Homo sapiens (Human), UniProt P15056); assay: Raf kinase assay (B-Raf), [33P] incorporation into MEK1(K97R); conditions: for inhibition at 1 µM: 1.0 μM compound, read-out: B-Raf inhibition at 1.0 μM
Protocol: (§1) A. Raf Kinase Assays (B-Raf, B-raf (V600E), and C-Raf)
(§2) Inhibition of kinase activity by test compound disclosed herein was estimated by quantifying the amount of [^33P] incorporation of substrate in the presence of test compound. Standard assay conditions were 2 ng of recombinant C-Raf or 5 ng of recombinant B-Raf or 5 ng of recombinant B-Raf (V600E) kinase (Upstate Biotechnology) with 500 ng MEK1(K97R) in assay buffer {8 μM ATP, 0.5 μCi [^33P]ATP (specific activity 3000 Ci/mmol, PerkinElmer), 50 mM Tris/HCl (pH7.5), and 1 mM EGTA, 1 mM Na3VO4, 1% 2-mercaptoethanol, 0.1% Brij 35, and 0.2 mg/ml BSA} at a final volume of 25 μL. Reactions were incubated at 30° C. for 30 min and stopped by adding 3% phosphoric acid, harvested onto a 96-well GF/B UniFilter (PerkinElmer) using a unifilter harvester (PerkinElmer), and counted with a TopCount microplate scintillation counter (PerkinElmer). The IC50 values of inhibitors were determined after carrying out assays at 3-fold serially diluted concentrations of each compound in duplication. The results were analyzed using linear regression software (GraphPad Prism 4; GraphPad Software Inc.). Inhibition of B-Raf, B-raf (V600E), and C-Raf kinases by various compounds listed in Table 1 are summarized and shown in Table 3 below. IC50 value is defined as the concentration of the test compound which achieves a half-maximal inhibition of the kinase activity.

[2] = target: B-Raf (V600E) (Homo sapiens (Human), UniProt P15056, V600E); assay: Raf kinase assay (B-Raf (V600E)), [33P] incorporation into MEK1(K97R)
Protocol: as §1, §2

[3] = target: C-Raf (Homo sapiens (Human), UniProt P04049); assay: Raf kinase assay (C-Raf), [33P] incorporation into MEK1(K97R)
Protocol: as §1, §2

Chain of C-Raf (P04049 whole entry): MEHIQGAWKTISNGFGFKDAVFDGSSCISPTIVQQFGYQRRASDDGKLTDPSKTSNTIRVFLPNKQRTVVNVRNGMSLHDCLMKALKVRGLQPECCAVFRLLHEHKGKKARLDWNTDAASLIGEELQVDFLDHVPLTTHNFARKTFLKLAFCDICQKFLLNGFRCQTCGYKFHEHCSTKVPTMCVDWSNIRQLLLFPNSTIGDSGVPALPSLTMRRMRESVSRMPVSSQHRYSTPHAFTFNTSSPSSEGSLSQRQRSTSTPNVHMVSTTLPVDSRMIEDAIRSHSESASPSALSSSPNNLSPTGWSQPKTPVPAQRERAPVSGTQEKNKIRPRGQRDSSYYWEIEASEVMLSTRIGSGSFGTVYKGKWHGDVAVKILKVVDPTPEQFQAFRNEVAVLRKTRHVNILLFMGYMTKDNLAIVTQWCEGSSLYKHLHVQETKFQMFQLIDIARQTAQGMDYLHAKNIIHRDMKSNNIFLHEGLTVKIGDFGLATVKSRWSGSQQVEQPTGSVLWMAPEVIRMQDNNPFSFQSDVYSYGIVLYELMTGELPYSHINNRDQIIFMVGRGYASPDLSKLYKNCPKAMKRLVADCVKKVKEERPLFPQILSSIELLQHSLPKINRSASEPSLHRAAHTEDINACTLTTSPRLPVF
Chain of B-Raf (P15056 whole entry): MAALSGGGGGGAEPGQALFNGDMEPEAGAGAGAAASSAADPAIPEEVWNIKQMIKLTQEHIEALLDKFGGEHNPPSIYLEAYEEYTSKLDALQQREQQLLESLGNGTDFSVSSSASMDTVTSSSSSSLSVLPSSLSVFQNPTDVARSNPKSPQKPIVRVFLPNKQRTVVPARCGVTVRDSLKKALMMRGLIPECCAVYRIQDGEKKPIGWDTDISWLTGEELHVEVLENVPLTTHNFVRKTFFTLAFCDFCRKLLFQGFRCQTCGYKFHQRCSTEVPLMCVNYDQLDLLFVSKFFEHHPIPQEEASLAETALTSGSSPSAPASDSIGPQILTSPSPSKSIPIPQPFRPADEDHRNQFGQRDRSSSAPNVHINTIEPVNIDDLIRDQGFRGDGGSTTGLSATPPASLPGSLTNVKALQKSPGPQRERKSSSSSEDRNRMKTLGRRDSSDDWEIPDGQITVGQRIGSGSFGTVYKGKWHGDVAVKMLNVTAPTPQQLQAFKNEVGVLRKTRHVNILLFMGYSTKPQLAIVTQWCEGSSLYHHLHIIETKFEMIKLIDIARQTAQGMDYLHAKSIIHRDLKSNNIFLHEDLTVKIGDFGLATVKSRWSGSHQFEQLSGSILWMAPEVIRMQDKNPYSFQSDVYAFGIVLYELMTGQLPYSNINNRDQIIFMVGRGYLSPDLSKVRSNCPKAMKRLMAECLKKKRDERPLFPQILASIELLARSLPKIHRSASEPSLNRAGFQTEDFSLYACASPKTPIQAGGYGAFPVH
Chain of B-Raf (V600E) (P15056 whole entry V600E): as the sequence (P15056 whole entry) above, with V600E counted along it

| SMILES | IC50 [1] [nM] | inhibition at 1 µM [1] [%] | IC50 [2] [nM] | IC50 [3] [nM] |
| --- | --- | --- | --- | --- |
| COc1ccc(-c2ccc3ncnc(Nc4cccc5[nH]ncc45)c3c2)c(C)c1 [Compound 77, N-(1H-indazol-4-yl)-6-(4-methoxy-2-methylphenyl)quinazolin-4-amine] | 698 | 61.7 | 911 | 2530 |
| COc1ccc(-c2ccc3ncnc(Nc4cccc5[nH]ncc45)c3c2)cc1C [Compound 78, N-(1H-indazol-4-yl)-6-(4-methoxy-3-methylphenyl)quinazolin-4-amine] | 470 | 71.1 | 736 | 1860 |
| COc1cc(-c2ccc3ncnc(Nc4cccc5[nH]nnc45)c3c2)ccc1O [Compound 82, 4-(4-(1H-benzo[d][1,2,3]triazol-4-ylamino)quinazolin-6-yl)-2-methoxyphenol] | 668 | 58 | 702 | 1270 |
| N#Cc1ccc(-c2ccc3ncnc(Nc4cccc5[nH]ncc45)c3c2)cc1 [Compound 88, 4-(4-(1H-indazol-4-ylamino)quinazolin-6-yl)benzonitrile] | 249 | 77.4 | 299 | 630 |
| COc1ccc(-c2ccc3ncnc(Nc4cccc5[nH]ncc45)c3c2)cc1OC [Compound 89, 6-(3,4-dimethoxyphenyl)-N-(1H-indazol-4-yl)quinazolin-4-amine] | 205 | 80.4 | 259 | 869 |
| CN(C)c1ccc(-c2ccc3ncnc(Nc4cccc5[nH]ncc45)c3c2)cc1 [Compound 90, 6-(4-(dimethylamino)phenyl)-N-(1H-indazol-4-yl)quinazolin-4-amine] | 762 | 56.1 | 1010 | 4080 |
| O=[N+]([O-])c1cccc(-c2ccc3ncnc(Nc4cccc5[nH]ncc45)c3c2)c1 [Compound 92, N-(1H-indazol-4-yl)-6-(3-nitrophenyl)quinazolin-4-amine] | 428 | 66.3 | 535 | 1610 |
| CCOc1ccc(-c2ccc3ncnc(Nc4cccc5[nH]ncc45)c3c2)cc1 [Compound 93, 6-(4-ethoxyphenyl)-N-(1H-indazol-4-yl)quinazolin-4-amine] | 347 | 76.6 | 355 | 1560 |
| CS(=O)(=O)Nc1cccc(-c2ccc3ncnc(Nc4cccc5[nH]ncc45)c3c2)c1 [Compound 95, N-(3-(4-(1H-indazol-4-ylamino)quinazolin-6-yl)phenyl)methanesulfonamide] | 430 | 70.9 | 534 | 1290 |
| COc1cc(-c2ccc3ncnc(Nc4cccc5c4cnn5C)c3c2)ccc1O [Compound 99, 2-methoxy-4-(4-(1-methyl-1H-indazol-4-ylamino)quinazolin-6-yl)phenol] | 358 | 61.1 | 451 | 3910 |
| CN(C)c1ccc(-c2ccc3ncnc(Nc4cccc(O)c4)c3c2)cc1 [Compound 106, 3-(6-(4-(dimethylamino)phenyl)quinazolin-4-ylamino)phenol] | 272 | 78.7 | 292 | 3190 |
| NS(=O)(=O)c1ccc(-c2ccc3ncnc(Nc4cccc5[nH]ncc45)c3c2)cc1 [Compound 107, 4-(4-(1H-indazol-4-ylamino)quinazolin-6-yl)benzenesulfonamide] | 345 | 75.4 | 328 | 677 |
| CCS(=O)(=O)Nc1cccc(-c2ccc3ncnc(Nc4cccc5[nH]ncc45)c3c2)c1 [Compound 108, N-(3-(4-(1H-indazol-4-ylamino)quinazolin-6-yl)phenyl)ethanesulfonamide] | 221 | 81.1 | 244 | 680 |
| CS(=O)(=O)c1ccc(-c2ccc3ncnc(Nc4cccc5[nH]ncc45)c3c2)cc1 [Compound 110, N-(1H-indazol-4-yl)-6-(4-(methylsulfonyl)phenyl)quinazolin-4-amine] | 248 | 81.8 | 273 | 650 |
| COc1ccc(-c2ccc3nccc(Nc4cccc5[nH]ncc45)c3c2)cc1F [Compound 112, 6-(3-fluoro-4-methoxyphenyl)-N-(1H-indazol-4-yl)quinolin-4-amine] | 182 | 80.2 | 207 | 619 |
| COc1ccc(-c2ccc3nccc(Nc4cccc5[nH]ncc45)c3c2)cc1OC [Compound 113, 6-(3,4-dimethoxyphenyl)-N-(1H-indazol-4-yl)quinolin-4-amine] | 263 | 75.5 | 291 | 972 |

More lines, now with the values ahead:

| IC50 [1] [nM] | inhibition at 1 µM [1] [%] | IC50 [2] [nM] | IC50 [3] [nM] | SMILES |
| --- | --- | --- | --- | --- |
| 514 | 69.6 | 557 | 1220 | Fc1ccc(-c2ccc3ncnc(Nc4cccc5[nH]ncc45)c3c2)cc1Cl [Compound 79, 6-(3-chloro-4-fluorophenyl)-N-(1H-indazol-4-yl)quinazolin-4-amine] |
| 287 | 77.2 | 289 | 919 | Clc1ccc(-c2ccc3ncnc(Nc4cccc5[nH]ncc45)c3c2)cc1 [Compound 80, 6-(4-chlorophenyl)-N-(1H-indazol-4-yl)quinazolin-4-amine] |
| 244 | 79.1 | 280 | 588 | Fc1cccc(-c2ccc3ncnc(Nc4cccc5[nH]ncc45)c3c2)c1 [Compound 81, 6-(3-fluorophenyl)-N-(1H-indazol-4-yl)quinazolin-4-amine] |
| 201 | 77.8 | 287 | 597 | c1ccc(-c2ccc3ncnc(Nc4cccc5[nH]ncc45)c3c2)cc1 [Compound 86, N-(1H-indazol-4-yl)-6-phenylquinazolin-4-amine] |
| 356 | 71.3 | 371 | 844 | FC(F)(F)c1cccc(-c2ccc3ncnc(Nc4cccc5[nH]ncc45)c3c2)c1 [Compound 87, N-(1H-indazol-4-yl)-6-(3-(trifluoromethyl)phenyl)quinazolin-4-amine] |
| 155 | 85.3 | 255 | 709 | Fc1ccccc1-c1ccc2ncnc(Nc3cccc4[nH]ncc34)c2c1 [Compound 91, 6-(2-fluorophenyl)-N-(1H-indazol-4-yl)quinazolin-4-amine] |
| 430 | 76.2 | 551 | 1410 | OCc1cccc(-c2ccc3ncnc(Nc4cccc5[nH]ncc45)c3c2)c1 [Compound 94, (3-(4-(1H-indazol-4-ylamino)quinazolin-6-yl)phenyl)methanol] |
| 235 | 81.1 | 357 | 778 | Cc1ccc(F)cc1-c1ccc2ncnc(Nc3cccc4[nH]ncc34)c2c1 [Compound 104, 6-(5-fluoro-2-methylphenyl)-N-(1H-indazol-4-yl)quinazolin-4-amine] |
| 380 | 72.6 | 515 | 2130 | COc1cccc(-c2ccc3ncnc(Nc4cccc5[nH]ncc45)c3c2)c1OC [Compound 105, 6-(2,3-dimethoxyphenyl)-N-(1H-indazol-4-yl)quinazolin-4-amine] |

Source: patent US8785459B2, “Quinazoline compounds as kinase inhibitors” (Development Center for Biotechnology, priority 2011, dated 2014)
